Laboratory results: US4649150A, “Antiulcerogenic amidine derivatives of 2-substituted 4-phenylimidazole” (Istituto de Angeli, S.p.A., priority 1983, dated 1987)
Like-named read-outs stand apart in the source and are kept apart here.

Key:
histamine H2 -receptors = target: T1, histamine H2 -receptors (Cavia porcellus, UniProt P47747); experiment: In vitro inhibitory activity in histamine-induced tachycardia (guinea pig atria); inhibition of the histamine-evoked positive chronotropic effect; details: isolated guinea pig atria, Krebs-Henseleit pH 7.4, 32° C., histamine 10^-6 g.ml^-1, 30 minutes; read-out: EC50 (average effective concentration of the H2-antagonists, inhibition of histamine-induced tachycardia)
T1 construct: isolated guinea pig atria suspended in an organ bath; from tissue; host or cells: isolated guinea pig atria
T1 sequence (P47747 whole entry): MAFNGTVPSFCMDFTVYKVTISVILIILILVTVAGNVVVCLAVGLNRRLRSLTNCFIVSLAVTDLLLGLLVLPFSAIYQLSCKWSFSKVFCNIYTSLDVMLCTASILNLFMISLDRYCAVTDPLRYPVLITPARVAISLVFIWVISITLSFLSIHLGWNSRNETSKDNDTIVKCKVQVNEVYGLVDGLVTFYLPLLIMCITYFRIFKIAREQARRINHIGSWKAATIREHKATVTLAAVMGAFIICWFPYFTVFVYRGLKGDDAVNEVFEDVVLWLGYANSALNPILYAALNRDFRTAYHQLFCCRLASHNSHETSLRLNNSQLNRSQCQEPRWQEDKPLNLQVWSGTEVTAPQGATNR
Procedure: The myocardial preparation, loaded with 1 g isometric tension, was allowed to stabilize for 60 minutes, and myocardial contractions were recorded through an isometric lever connected to a strain-gauge coupler, and the instantaneous rate was monitored with a cardiotachometer and a heat-writing pen recorder. After two control responses to histamine (10^-6 g.ml^-1) the test compounds were added to the bath at the desired final concentration and left for 30 minutes before the atria were again challenged with histamine. The chronotropic response obtained in the presence of the antagonist was then compared to the control response to histamine, and the percent reduction of the histamine H2 -evoked response was calculated. […] 3, Smooth muscle, Ed. Daniel E. E. Paton, M., Plenum Press. New York (1975); Ash and Schild, Br. J. Pharmacol. Chemother. 27, 427-439, 1966.

[1] = system: histamine-induced gastric secretion of acid; experiment: In vivo antisecretory activity in histamine-induced gastric secretion (stomach perfused rat); details: iv, read-out: ED50 (histamine-induced gastric secretion)
Description: The ability of the test compounds to inhibit histamine-induced gastric secretion of acid was investigated after intravenous or intraduodenal administration in stomach perfused rats, according to Gosh and Schild [Br. J. Pharmacol. Chemother. 13, 54 (1958)]. The preparation of the animals in general anesthesia (urethane 1 g.kg^-1 i.p.) and constant temperature was achieved by inserting and tying in place polyethyl tubes (PE 50) in the esophagus and in the pyloric-antral region. After the stomach was washed to remove residuals of food, continuous perfusion of the stomach was started with saline, 0.5 ml.min^-1 (37° C.), primed by a Jobling peristaltic pump. After 30 minutes of perfusion adaptation, samples of the stomach perfusate were collected at 30 min. intervals and titrated for acid content, expressed as μEq of 1N NaOH. As control acid output became constant, intravenous perfusion of histamine (1 mg.kg^-1hr^-1) was started and maintained throughout the experimental period. After the acid secretion had reached the steadily higher level, increasing doses of the test compound were injected intravenously in order to obtain dose-response functions. The ED50 was then calculated by standard procedure.

[2] = stomach perfused rat, urethane anesthesia, histamine 1 mg.kg^-1hr^-1 i.v., values expressed taking the compound as a base

Row | EC50 (histamine H2 -receptors) [nM] | Compound | ED50 [1, 2] [mg/kg] | ED50 ([1]; Rattus norvegicus) [mg/kg]
1 | 120 | C=CCNC=Nc1ccc(-c2c[nH]c(C)n2)cc1 [16 (c), N-Allyl-N'-[4-(2-methyl-imidazol-4-yl)phenyl]-formamidine] | 0.025 | 
2 | 400 | Cc1nc(-c2ccc(N=CNC(C)(C)C)cc2)c[nH]1 [Example 17, N-tert.Butyl-N'-[4-(2-methyl-imidazol-4-yl)phenyl]-formamidine] | 0.08 | 

More lines, now with the values behind:

Row | Compound | EC50 (histamine H2 -receptors) [nM] | ED50 [1, 2] [mg/kg] | ED50 ([1]; Rattus norvegicus) [mg/kg]
3 | CCNC=Nc1ccc(-c2c[nH]c(C)n2)cc1 [16 (a), N-Ethyl-N'-[4-(2-methyl-imidazol-4-yl)phenyl]-formamidine] | 150 | 0.032 | 
4 | CC(C)NC=Nc1ccc(-c2c[nH]c(O)n2)cc1 [16 (aa), N-Isopropyl-N'-[4-(2-hydroxy-imidazol-4-yl)phenyl]-formamidine] | 194 | 0.065 | 
5 | Cc1nc(-c2ccc(N=CNC(C)C)cc2)c[nH]1 [16 (b), N-Isopropyl-N'-[4-(2-methyl-imidazol-4-yl)phenyl]-formamidine] | 180 | 0.067 | 
6 | CN/C(=N/CCSCc1nc[nH]c1C)NC#N [Cimetidine, reference compound] |  |  | 0.56
